# Measurements taken from patent publication US20220305093A1, “NK-LYSIN PEPTIDE COMPOSITIONS AND METHODS FOR THEIR USE AS ANTIMICROBIAL/ANTIVIRAL AGENTS” (priority 2021, published 2022).
# System: S. typhimurium (ATCC 14028)
# Format: cell-based, Salmonella typhimurium
# Conditions: discs on MH agar, overnight
# Procedure: Screening of NK-lysin peptides was carried out against gram-negative S. typhimurium (ATCC 14028) bacteria. Overnight cultivation of the bacteria was carried out at a temperature of 3TC. A bacterial suspension was created in 10 mM sodium phosphate buffer pH 7.0 having a density of (2×10^6 CFU ml^−1) and plated on Muller-Hinton (MH) agar plates to inoculate. After the plates were dry, antibiotics discs of various concentrations (0 to 150 μg/ml) of antibiotic or NK-lysin peptides were applied to the surface of the inoculated plates. The plates were cultured overnight at 3TC and observed for restriction of growth by determining the diameter of bacterial-free zones surrounding each disc. Ceftazidime antibiotic was employed as a positive control.
compound,measurement,value
"CC(C)(O/N=C(\C(=O)N[C@@H]1C(=O)N2C(C(=O)[O-])=C(C[n+]3ccccc3)CS[C@H]12)c1csc(N)n1)C(=O)O [ceftazidime, reference compound]",clear zone diameter,~21 mm
gentamicin [reference compound],clear zone diameter,28 mm
